Assay results: ChEMBL document CHEMBL1201862, “PubChem BioAssay data set” (2004)
Calls of active or inactive are those of the source.

Assays:
[1] = target: T1, Polyadenylate-binding protein 1 (Homo sapiens, UniProt P11940); assay: MLLE binding blockers, Cy5 peptide tracer – biochemical, fluorescence polarization, Cy5-PAM2 peptide, secondary, miRNA deadenylation inhibitor project, dose response (AID 602260); assay type: functional; conditions: read-out: IC50_Mean
[2] = target: T1, Polyadenylate-binding protein 1; assay: MLLE domain peptide-binding blockers, IC50 – biochemical, fluorescence polarization, FITC-PAM2 peptide, dose response (AID 602259); assay type: functional; conditions: read-out: IC50_Mean
[3] = THP-1 cell cytotoxicity, dose response, cytotoxicity control for non-replicating M. tuberculosis project (AID 489025); assay type: functional
[4] = cells; assay type: functional
[5] = target: FAD-linked sulfhydryl oxidase ALR (Homo sapiens, UniProt P55789); assay: ALR-catalysed DTT oxidation blockers – biochemical, H2O2 detection, luminescence, cherry-pick, dose response (AID 493248)
[6] = target: T2, Fatty acid synthase (Homo sapiens, UniProt P49327); assay: inhibition of human FAS-TE enzyme activity – biochemical, endpoint fluorescence intensity, uHTS hits, dose response (AID 624327); assay type: functional;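 further: fluorescence from hydrolysis of an O-methyl fluorescein acyl ester substrate by the enzyme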
[7] = target: T2, Fatty acid synthase; assay: inhibition of human FAS-TE enzyme activity – biochemical, kinetic fluorescence intensity, dose response (AID 624326); assay type: functional;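 further: rate of fluorescence rise from hydrolysis of a fluorogenic O-methyl fluorescein ester substrate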
[8] = cells; assay type: functional, cell-based
[9] = Trypanosoma cruzi growth suppression in host cells – NIH3T3 host cells, beta-gal luminescence, confirmation (AID 2044); assay type: functional, cell-based;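 further: intracellular parasites grown in NIH/3T3 mouse fibroblasts as host cells; luminescent beta-galactosidase reporter signal from transgenic T. cruzi replicating inside host cells; inhibitors lower the luminescence signal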
[10] = cells; assay type: functional, cell-based; remark: listed apart in the source
[11] = NIH3T3 cell viability loss – ATP luminescence, mouse fibroblasts, counter-screen, dose response (AID 2010); assay type: functional, cell-based;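 further: cells exposed to compound for about 90 hours before reading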
[12] = tested on: INS1; assay: INS-1E survival protection against cytokine death – cell-based, luminescence, retest, dose response (AID 449756); assay type: functional; conditions: Rattus norvegicus;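 further: cell death triggered by IL-1 beta plus TNF-alpha plus IFN-gamma mixture; protective hits raise ATP signal compared with cytokine alone wells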
[13] = target: Glyceraldehyde-3-phosphate dehydrogenase (Homo sapiens, UniProt P04406)
[14] = target: T3, Protein skinhead-1 (Caenorhabditis elegans, UniProt P34707); assay type: functional
T3 sequence (P34707 whole entry): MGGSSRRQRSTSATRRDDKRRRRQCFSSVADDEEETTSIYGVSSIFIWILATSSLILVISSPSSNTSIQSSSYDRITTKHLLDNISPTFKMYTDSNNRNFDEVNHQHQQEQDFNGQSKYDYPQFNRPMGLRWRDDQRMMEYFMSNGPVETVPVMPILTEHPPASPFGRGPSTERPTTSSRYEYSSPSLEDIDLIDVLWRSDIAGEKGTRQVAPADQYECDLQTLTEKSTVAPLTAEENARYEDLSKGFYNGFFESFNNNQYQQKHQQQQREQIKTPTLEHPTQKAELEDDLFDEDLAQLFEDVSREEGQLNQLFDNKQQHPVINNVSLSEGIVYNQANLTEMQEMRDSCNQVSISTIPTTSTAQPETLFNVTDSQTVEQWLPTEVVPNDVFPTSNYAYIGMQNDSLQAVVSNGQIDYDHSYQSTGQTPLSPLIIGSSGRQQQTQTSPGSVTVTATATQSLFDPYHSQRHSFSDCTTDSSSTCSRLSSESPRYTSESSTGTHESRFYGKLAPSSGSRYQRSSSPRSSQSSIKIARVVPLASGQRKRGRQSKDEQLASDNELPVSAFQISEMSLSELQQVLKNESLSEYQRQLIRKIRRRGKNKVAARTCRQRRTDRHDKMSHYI

[15] = target: Estrogen receptor beta (Homo sapiens, UniProt Q92731);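 further: recombinant ER-beta bound to coactivator SRC1 peptide in presence of estradiol agonist; inhibitors block coactivator peptide binding and lower the FRET signal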
[16] = target: Paired box protein Pax-8 (Homo sapiens, UniProt Q06710); assay: PAX8 transcriptional activity inhibition in RMG-I – RMG-I cells, luciferase, cherry-pick, dose response (AID 687027); assay type: functional, cell-based;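 further: luciferase reporter driven by Pax8 target thyroperoxidase promoter measured by SteadyGlo luminescence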
Paired box protein Pax-8, sequence (Q06710 whole entry): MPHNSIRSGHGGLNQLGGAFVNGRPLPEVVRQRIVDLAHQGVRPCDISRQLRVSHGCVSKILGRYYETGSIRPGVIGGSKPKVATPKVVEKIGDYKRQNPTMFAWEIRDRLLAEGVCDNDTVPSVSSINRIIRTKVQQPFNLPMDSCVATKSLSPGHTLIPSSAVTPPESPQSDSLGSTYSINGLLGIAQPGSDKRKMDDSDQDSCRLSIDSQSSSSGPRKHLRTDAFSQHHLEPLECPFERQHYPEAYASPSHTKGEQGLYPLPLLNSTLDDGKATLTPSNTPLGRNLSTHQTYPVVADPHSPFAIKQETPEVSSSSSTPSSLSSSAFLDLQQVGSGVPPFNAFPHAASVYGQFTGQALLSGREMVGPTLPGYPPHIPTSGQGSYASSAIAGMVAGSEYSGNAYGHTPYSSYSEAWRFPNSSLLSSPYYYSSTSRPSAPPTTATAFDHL

T1 sequence (P11940 whole entry, the tested form may be a part): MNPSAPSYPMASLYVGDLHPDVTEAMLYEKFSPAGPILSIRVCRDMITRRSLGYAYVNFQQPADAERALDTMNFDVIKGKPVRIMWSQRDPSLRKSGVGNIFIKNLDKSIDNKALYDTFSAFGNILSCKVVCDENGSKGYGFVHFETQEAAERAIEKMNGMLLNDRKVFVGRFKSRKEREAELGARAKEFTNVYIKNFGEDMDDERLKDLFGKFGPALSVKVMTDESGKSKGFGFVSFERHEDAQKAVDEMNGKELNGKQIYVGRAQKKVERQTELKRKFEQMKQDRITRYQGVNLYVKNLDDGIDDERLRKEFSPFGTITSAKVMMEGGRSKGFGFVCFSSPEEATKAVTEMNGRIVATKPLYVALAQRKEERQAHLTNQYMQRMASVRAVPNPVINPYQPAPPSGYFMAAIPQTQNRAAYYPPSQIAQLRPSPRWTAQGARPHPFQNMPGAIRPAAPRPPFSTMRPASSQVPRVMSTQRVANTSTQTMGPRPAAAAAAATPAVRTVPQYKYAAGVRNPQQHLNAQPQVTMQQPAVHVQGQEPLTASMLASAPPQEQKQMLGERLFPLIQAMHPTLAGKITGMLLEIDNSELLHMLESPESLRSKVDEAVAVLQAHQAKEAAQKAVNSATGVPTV
T2 sequence (P49327 whole entry): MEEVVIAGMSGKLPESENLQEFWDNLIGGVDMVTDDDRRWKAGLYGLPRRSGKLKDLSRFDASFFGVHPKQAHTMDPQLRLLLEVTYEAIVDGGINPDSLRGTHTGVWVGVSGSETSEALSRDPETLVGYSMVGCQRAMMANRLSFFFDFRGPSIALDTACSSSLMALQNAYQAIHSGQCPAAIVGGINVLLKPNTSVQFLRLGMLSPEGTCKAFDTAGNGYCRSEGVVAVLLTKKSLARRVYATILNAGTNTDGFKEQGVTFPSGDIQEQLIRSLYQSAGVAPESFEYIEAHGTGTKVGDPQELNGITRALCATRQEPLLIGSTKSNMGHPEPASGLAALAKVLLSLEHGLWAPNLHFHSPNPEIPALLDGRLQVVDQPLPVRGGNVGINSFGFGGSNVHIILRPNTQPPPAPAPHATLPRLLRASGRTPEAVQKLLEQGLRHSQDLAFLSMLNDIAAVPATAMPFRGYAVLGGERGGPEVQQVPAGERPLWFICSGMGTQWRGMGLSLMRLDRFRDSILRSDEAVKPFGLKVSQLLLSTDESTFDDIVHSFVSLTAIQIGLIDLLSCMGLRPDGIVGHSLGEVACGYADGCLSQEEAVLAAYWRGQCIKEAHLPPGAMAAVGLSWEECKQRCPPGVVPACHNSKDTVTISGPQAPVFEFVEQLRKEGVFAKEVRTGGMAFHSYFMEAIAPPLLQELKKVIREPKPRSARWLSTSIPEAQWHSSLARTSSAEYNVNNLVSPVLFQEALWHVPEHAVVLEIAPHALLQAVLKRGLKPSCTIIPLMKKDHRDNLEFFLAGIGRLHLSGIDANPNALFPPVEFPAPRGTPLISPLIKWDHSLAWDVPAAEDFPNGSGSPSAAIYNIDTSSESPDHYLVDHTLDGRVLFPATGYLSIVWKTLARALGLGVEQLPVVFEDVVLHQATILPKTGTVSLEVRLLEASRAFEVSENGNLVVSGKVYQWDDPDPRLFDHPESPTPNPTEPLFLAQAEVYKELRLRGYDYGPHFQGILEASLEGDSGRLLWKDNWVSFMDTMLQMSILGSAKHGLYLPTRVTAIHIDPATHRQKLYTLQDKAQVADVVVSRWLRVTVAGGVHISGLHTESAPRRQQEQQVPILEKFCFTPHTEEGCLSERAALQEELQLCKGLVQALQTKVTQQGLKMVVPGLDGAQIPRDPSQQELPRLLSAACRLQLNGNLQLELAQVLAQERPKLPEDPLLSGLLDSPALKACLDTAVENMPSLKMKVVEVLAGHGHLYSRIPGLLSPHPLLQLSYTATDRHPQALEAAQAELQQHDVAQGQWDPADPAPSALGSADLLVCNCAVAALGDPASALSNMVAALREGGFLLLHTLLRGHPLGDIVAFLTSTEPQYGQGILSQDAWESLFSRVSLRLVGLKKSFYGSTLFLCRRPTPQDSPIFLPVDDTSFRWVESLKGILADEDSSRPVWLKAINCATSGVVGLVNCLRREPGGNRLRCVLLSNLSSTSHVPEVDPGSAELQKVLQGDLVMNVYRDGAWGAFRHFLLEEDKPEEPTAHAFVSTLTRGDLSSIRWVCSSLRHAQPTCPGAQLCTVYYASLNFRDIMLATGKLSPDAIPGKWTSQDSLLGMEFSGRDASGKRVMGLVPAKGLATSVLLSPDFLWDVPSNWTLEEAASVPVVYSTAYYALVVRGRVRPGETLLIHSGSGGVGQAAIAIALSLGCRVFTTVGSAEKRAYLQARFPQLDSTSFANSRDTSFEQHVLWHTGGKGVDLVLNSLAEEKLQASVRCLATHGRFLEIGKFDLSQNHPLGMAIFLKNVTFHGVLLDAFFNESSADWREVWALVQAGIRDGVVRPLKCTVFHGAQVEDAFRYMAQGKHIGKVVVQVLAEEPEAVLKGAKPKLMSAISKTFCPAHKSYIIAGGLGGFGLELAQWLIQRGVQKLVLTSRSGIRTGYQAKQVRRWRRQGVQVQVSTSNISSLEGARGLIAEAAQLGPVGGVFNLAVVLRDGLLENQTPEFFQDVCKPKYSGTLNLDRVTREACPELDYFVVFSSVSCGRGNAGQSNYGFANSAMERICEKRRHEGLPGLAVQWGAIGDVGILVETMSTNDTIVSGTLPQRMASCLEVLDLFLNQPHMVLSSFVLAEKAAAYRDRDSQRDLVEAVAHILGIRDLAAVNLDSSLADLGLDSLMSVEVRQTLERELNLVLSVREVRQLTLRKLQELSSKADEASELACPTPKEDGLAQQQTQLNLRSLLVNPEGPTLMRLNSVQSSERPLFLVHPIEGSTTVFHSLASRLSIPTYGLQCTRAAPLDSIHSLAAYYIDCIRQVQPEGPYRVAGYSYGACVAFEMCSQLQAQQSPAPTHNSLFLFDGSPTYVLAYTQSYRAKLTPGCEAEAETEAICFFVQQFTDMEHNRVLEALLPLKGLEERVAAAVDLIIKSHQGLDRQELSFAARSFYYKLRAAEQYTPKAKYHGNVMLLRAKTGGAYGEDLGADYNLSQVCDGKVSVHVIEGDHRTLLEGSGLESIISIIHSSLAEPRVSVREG
FAD-linked sulfhydryl oxidase ALR, sequence (P55789 whole entry): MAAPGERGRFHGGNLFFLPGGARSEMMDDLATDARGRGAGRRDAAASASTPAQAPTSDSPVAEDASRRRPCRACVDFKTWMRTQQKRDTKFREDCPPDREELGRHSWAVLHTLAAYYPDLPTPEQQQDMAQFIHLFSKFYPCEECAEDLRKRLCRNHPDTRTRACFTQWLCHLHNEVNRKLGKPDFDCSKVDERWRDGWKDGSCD
Glyceraldehyde-3-phosphate dehydrogenase, sequence (P04406 whole entry): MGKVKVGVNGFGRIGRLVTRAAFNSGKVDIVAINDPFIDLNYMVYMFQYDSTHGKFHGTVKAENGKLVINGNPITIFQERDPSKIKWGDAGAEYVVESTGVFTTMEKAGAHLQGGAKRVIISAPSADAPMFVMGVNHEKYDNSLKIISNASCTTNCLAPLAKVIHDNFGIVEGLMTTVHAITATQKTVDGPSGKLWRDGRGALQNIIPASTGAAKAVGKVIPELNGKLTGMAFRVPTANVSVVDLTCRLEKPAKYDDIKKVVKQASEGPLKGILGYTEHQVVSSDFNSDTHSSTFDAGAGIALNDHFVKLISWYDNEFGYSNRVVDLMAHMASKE
Estrogen receptor beta, sequence (Q92731 whole entry): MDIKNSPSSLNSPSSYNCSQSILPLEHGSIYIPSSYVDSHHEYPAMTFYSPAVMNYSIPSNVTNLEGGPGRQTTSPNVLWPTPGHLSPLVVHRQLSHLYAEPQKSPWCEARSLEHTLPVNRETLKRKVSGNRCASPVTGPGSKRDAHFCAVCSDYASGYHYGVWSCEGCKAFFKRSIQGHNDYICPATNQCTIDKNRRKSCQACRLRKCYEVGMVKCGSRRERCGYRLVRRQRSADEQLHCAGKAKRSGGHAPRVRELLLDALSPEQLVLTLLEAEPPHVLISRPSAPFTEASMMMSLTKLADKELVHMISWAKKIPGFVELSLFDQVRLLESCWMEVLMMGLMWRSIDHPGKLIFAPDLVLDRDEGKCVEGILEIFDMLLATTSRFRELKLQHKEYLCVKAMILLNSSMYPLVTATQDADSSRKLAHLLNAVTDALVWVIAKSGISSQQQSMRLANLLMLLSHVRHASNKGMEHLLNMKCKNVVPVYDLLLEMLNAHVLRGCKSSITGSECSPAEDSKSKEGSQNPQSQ

With `CCOC(=O)N1CCc2[nH]c3ccc(C)cc3c2C1` the IC50 [1] was > 66 µM (inactive) and the IC50 [2] was 55.2 µM (inactive).

In the case of `CC[n+]1c(/C=C(\C)Nc2ccccc2)sc2ccccc21`, the CC50 [3] was 30.1 µM (active).

For `Cc1cccc2cc(C#N)c(NCCCn3ccnc3)nc12`, the CC50 [3] was > 40 µM (active) and the IC50 [4] was 43.2 µM (active).

For `Nc1nc(-c2ccc3ccccc3c2)cs1`, the AC50 [5] was 0.188 µM (active).

For `CC(/C=C/c1ccccc1F)=N\NC(=O)c1ccccc1`, the CC50 [3] was > 40 µM (active) and the IC50 [4] was 21.8 µM (active).

For `Cc1ccc(-c2nnc(COC(=O)c3cc(O)nc4ccccc34)o2)cc1`, the IC50 [6] was 10.4 µM (active) and the IC50 [7] was 9.54 µM (active).

With `N#CC1=C(N)Oc2cc(N)ccc2C1C1CC=CCC1` (stereo not drawn) the AC50 [5] was 5.72 µM (active).

With `O=C1NC(c2ccccc2)(C(F)(F)F)SC2=CCCCCN12` (stereo not drawn) the IC50 [1] was > 66 µM (inactive) and the IC50 [2] was > 66 µM (inactive).

With `O=c1c2ccccc2nc(COc2ccccc2)n1/N=C/c1ccc(O)cc1O` the EC50 [8] was 10.6 µM (active), the EC50 [9] was 2.48 µM (active) and the EC50 [10] was 31.9 µM (active). The EC50 [11] was 8.68 µM (active) and the AC50 [12] was 4.63 µM (active).

For `O=C1C2CCCCC2C(=O)N1c1nc(Cc2ccccc2)n[nH]1` (stereo not drawn), the IC50 [13] was > 100 µM (not active).

With `Oc1ccc(-c2nnc(S)n2-c2ccc(F)c(Cl)c2)nn1` the AC50 [5] was 7.36 µM (active).

For `O=C(NNS(=O)(=O)c1ccc(C(=O)NC2CCCC2)cc1)c1ccncc1`, the AC50 [5] was 1.67 µM (active).

In the case of `Clc1ccc(OCCCCSc2ncccn2)cc1`, the IC50 [1] was > 66 µM (inactive), the IC50 [2] was > 66 µM (inactive) and the IC50 [14] was 21.7 µM (active).

With `O=C(CCNC(=O)c1ccc([N+](=O)[O-])cc1)NCCc1ccccc1` the IC50 [6] was 10.3 µM (active) and the IC50 [7] was 11.2 µM (active).

For `CN(CC(=O)N1CCN(c2ccccc2)CC1)S(=O)(=O)c1c[nH]cn1`, the AC50 [5] was 4.58 µM (active).

For `O=C(COC(=O)c1cc([N+](=O)[O-])ccc1N1CCOCC1)Nc1c(Cl)cccc1Cl`, the IC50 [6] was 7.85 µM (active) and the IC50 [7] was 6.21 µM (active).

For `O=C(CCc1ccccc1F)N1CCN(c2ccccc2)CC1`, the AC50 [5] was > 100 µM (inactive).

In the case of `O=C(CN1C(=O)COc2ccc(Cl)cc21)Nc1ccc2c(c1)OCCO2`, the EC50 [8] was > 350 µM (not active) and the EC50 [10] was > 350 µM (not active).

In the case of `Cc1ccc(-c2cc(C(F)(F)F)n3nc(C(=O)Nc4c(C)n(C)n(-c5ccccc5)c4=O)cc3n2)cc1`, the EC50 [8] was > 350 µM (not active) and the EC50 [10] was > 350 µM (not active).

For `CC(C)c1onc(C(=O)Nc2sc3c(c2C#N)CCC3)c1[N+](=O)[O-]`, the EC50 [8] was > 350 µM (not active) and the EC50 [10] was > 350 µM (not active).

With `CCOC(=O)N1CCN(C(=O)c2ccc(Cn3c(=S)[nH]c4cc(OCC)c(OCC)cc4c3=O)cc2)CC1` the EC50 [8] was > 350 µM (not active) and the EC50 [10] was > 350 µM (not active).

For `CCCCC(CC)C(=O)NCc1ccccc1OC` (stereo not drawn), the IC50 [15] was > 50 µM (not active).

In the case of `CC(=O)Nc1ccc(SC[C@H](Cc2ccccc2)N2CC[C@@H](C(C)(C)C)CCC2=O)cc1`, the IC50 [1] was > 66 µM (inactive) and the IC50 [2] was > 66 µM (inactive).

For `C[C@H](CO)N1C[C@H](C)[C@@H](CN(C)S(=O)(=O)c2ccc(Cl)cc2)OCCCC[C@H](C)Oc2ccc(NS(=O)(=O)c3ccc(Cl)cc3)cc2C1=O`, the AC50 [16] was 4.34 µM (active).

For `O=C(COC(=O)c1cc([N+](=O)[O-])ccc1N1CCOCC1)NCc1ccccc1`, the IC50 [6] was 0.841 µM (active) and the IC50 [7] was 0.683 µM (active).

In the case of `O=C(NC(=S)NNS(=O)(=O)c1ccc(Cl)cc1)c1cccnc1`, the IC50 [1] was > 66 µM (inactive) and the IC50 [2] was > 66 µM (inactive).

With `CCc1cccc(NC(=O)COC(=O)c2cc([N+](=O)[O-])ccc2N2CCOCC2)c1` the IC50 [6] was 0.29 µM (active) and the IC50 [7] was 0.393 µM (active).

With `O=C(Nc1nc2ccccc2[nH]1)c1ccc(F)cc1` the CC50 [3] was > 40 µM (active) and the IC50 [4] was 4.33 µM (active).

In the case of `CCN(CC)c1ccc(NC(=O)c2ccc(Br)o2)c(C)c1`, the AC50 [5] was 1.61 µM (active).

With `CCC(SC1=NCCS1)C(=O)Nc1ccc(S(N)(=O)=O)cc1` (stereo not drawn) the IC50 [1] was > 66 µM (inactive) and the IC50 [2] was > 66 µM (inactive).
